Literature values as cited in PubChem BioAssay AID1259409 (Chemical Carcinogenesis Research Information System (CCRIS), 2018).

System: rodent chemically induced tumor inhibition, incidence and multiplicity
Experiment: CCRIS tumor inhibitor studies
Settings: Promoter: NONE USED

Structure (SMILES): CC1=C(/C=C/C(C)=C/C=C/C(C)=C/C(=O)NCCCO)C(C)(C)CCC1
- tumour outcome (control, treated, inhibition, significance) (Carcinogen: N-BUTYL-N-(4-HYDROXYBUTYL)NITROSAMINE, 3817-11-6, Dose [Inhibitor]: 1.5 MMOL/KG/D IN DIET FOR 108 D STARTING 1 WK POST CARCINOGEN TREATMENT (STUDY DURATION: 171 D), Route [Inhibitor]: ORAL, Species: MOUSE, Strain/Sex: BDF/MALE, Target Tissue: Type of Lesion: URINARY BLADDER: TRANSITIONAL CELL CARCINOMA, Dose [Carcinogen]: 5 MG 2/WK FOR 9 WK): 31/55 (56%), 28/54 (51%), 9%, not significant
- tumour outcome (control, treated, inhibition, significance) (Carcinogen: N-NITROSOBIS(2-OXOPROPYL)AMINE, 60599-38-4, Dose [Inhibitor]: 0.25 MMOL/KG OF DIET FOR 357 D STARTING 2 WK AFTER LAST CARCINOGEN DOSE AND INTERRUPTED BY A 1 WK REST PERIOD OF VEHICLE, Route [Inhibitor]: ORAL, Species: HAMSTER, Strain/Sex: SYRIAN/FEMALE, Target Tissue: Type of Lesion: LIVER: HEPATOCELLULAR CARCINOMA, Dose [Carcinogen]: 20 MG/KG INJECTION GIVEN TWICE 1 WK APART): 5%, 42%, -740%, not calculated
- tumour outcome (control, treated, inhibition, significance) (Carcinogen: N-NITROSOBIS(2-OXOPROPYL)AMINE, 60599-38-4, Dose [Inhibitor]: 0.25 MMOL/KG OF DIET FOR 357 D STARTING 2 WK AFTER LAST CARCINOGEN DOSE AND INTERRUPTED BY A 1 WK REST PERIOD OF VEHICLE, Route [Inhibitor]: ORAL, Species: HAMSTER, Strain/Sex: SYRIAN/FEMALE, Target Tissue: Type of Lesion: PANCREAS: CARCINOMA, Dose [Carcinogen]: 20 MG/KG INJECTION GIVEN TWICE 1 WK APART): 38%, 32%, 16%, not calculated
- tumour outcome (control, treated, inhibition, significance) (Carcinogen: N-NITROSOBIS(2-OXOPROPYL)AMINE, 60599-38-4, Dose [Inhibitor]: 0.25 MMOL/KG OF DIET FOR 357 D STARTING 2 WK AFTER LAST CARCINOGEN DOSE AND INTERRUPTED BY A 1 WK REST PERIOD OF VEHICLE, Route [Inhibitor]: ORAL, Species: HAMSTER, Strain/Sex: SYRIAN/MALE, Target Tissue: Type of Lesion: LIVER: HEPATOCELLULAR CARCINOMA, Dose [Carcinogen]: 20 MG/KG INJECTION GIVEN TWICE 1 WK APART): 7%, 0%, 100%, not calculated
- tumour outcome (control, treated, inhibition, significance) (Carcinogen: N-NITROSOBIS(2-OXOPROPYL)AMINE, 60599-38-4, Dose [Inhibitor]: 0.25 MMOL/KG OF DIET FOR 357 D STARTING 2 WK AFTER LAST CARCINOGEN DOSE AND INTERRUPTED BY A 1 WK REST PERIOD OF VEHICLE, Route [Inhibitor]: ORAL, Species: HAMSTER, Strain/Sex: SYRIAN/MALE, Target Tissue: Type of Lesion: PANCREAS: CARCINOMA, Dose [Carcinogen]: 20 MG/KG INJECTION GIVEN TWICE 1 WK APART): 34%, 27%, 21%, not calculated
- tumour outcome (control, treated, inhibition, significance) (Carcinogen: N-NITROSOBIS(2-OXOPROPYL)AMINE, 60599-38-4, Dose [Inhibitor]: 0.5 MMOL/KG OF DIET FOR 357 D STARTING 2 WK AFTER LAST CARCINOGEN DOSE AND INTERRUPTED BY A 1 WK REST PERIOD OF VEHICLE-, Route [Inhibitor]: ORAL, Species: HAMSTER, Strain/Sex: SYRIAN/FEMALE, Target Tissue: Type of Lesion: LIVER: HEPATOCELLULAR CARCINOMA, Dose [Carcinogen]: 20 MG/KG INJECTION GIVEN TWICE 1 WK APART): 5%, 9%, -80%, not calculated
- tumour outcome (control, treated, inhibition, significance) (Carcinogen: N-NITROSOBIS(2-OXOPROPYL)AMINE, 60599-38-4, Dose [Inhibitor]: 0.5 MMOL/KG OF DIET FOR 357 D STARTING 2 WK AFTER LAST CARCINOGEN DOSE AND INTERRUPTED BY A 1 WK REST PERIOD OF VEHICLE-, Route [Inhibitor]: ORAL, Species: HAMSTER, Strain/Sex: SYRIAN/FEMALE, Target Tissue: Type of Lesion: PANCREAS: CARCINOMA, Dose [Carcinogen]: 20 MG/KG INJECTION GIVEN TWICE 1 WK APART): 38%, 27%, 29%, not calculated
- tumour outcome (control, treated, inhibition, significance) (Carcinogen: N-NITROSOBIS(2-OXOPROPYL)AMINE, 60599-38-4, Dose [Inhibitor]: 0.5 MMOL/KG OF DIET FOR 357 D STARTING 2 WK AFTER LAST CARCINOGEN DOSE AND INTERRUPTED BY A 1 WK REST PERIOD OF VEHICLE-, Route [Inhibitor]: ORAL, Species: HAMSTER, Strain/Sex: SYRIAN/MALE, Target Tissue: Type of Lesion: LIVER: HEPATOCELLULAR CARCINOMA, Dose [Carcinogen]: 20 MG/KG INJECTION GIVEN TWICE 1 WK APART): 7%, 12%, -71%, not calculated
- tumour outcome (control, treated, inhibition, significance) (Carcinogen: N-NITROSOBIS(2-OXOPROPYL)AMINE, 60599-38-4, Dose [Inhibitor]: 0.5 MMOL/KG OF DIET FOR 357 D STARTING 2 WK AFTER LAST CARCINOGEN DOSE AND INTERRUPTED BY A 1 WK REST PERIOD OF VEHICLE-, Route [Inhibitor]: ORAL, Species: HAMSTER, Strain/Sex: SYRIAN/MALE, Target Tissue: Type of Lesion: PANCREAS: CARCINOMA, Dose [Carcinogen]: 20 MG/KG INJECTION GIVEN TWICE 1 WK APART): 34%, 40%, -18%, not calculated

Structure (SMILES): CS(=O)(=O)Nc1ccc([N+](=O)[O-])cc1OC1CCCCC1
- tumour outcome (control, treated, inhibition, significance) (Carcinogen: 4-METHYLNITROSAMINO)-1-(3-PYRIDYL)-1-BUTANONE, 64091-91-4, Dose [Inhibitor]: 0, 7 MMOL/KG BW/D IN DIET FOR DURATION OF STUDY BEGINNING 2 WK PRIOR TO CARCINOGEN TREATMENT (STUDY DURATION: 25 WK), Route [Inhibitor]: ORAL, Species: MOUSE, Strain/Sex: STRAIN-A/FEMALE, Target Tissue: Type of Lesion: LUNG: TUMOR, Dose [Carcinogen]: 2.2 MMOL/KG BW (TOTAL DOSE) ADMINISTERED IN DRINKING WATER FOR 7 WK): 29/29 (100%), 25/25 (100%), 0%, not significant

Structure (SMILES): CC1(C)O[C@@H]2C[C@H]3[C@@H]4CCC5=CC(=O)C=C[C@]5(C)[C@@]4(F)[C@@H](O)C[C@]3(C)[C@]2(C(=O)CO)O1
- tumour outcome (control, treated, inhibition, significance) (Carcinogen: UVB IRRADIATION, Dose [Inhibitor]: 14.4 NMOL IN 0.1 ML ACETONE 5/WK FOR 4 WK IMMEDIATELY AFTER EACH UVB EXPOSURE FOLLOWED BY 48 WK OBSERVATION PERIOD (STUD, Route [Inhibitor]: DERMAL, Species: MOUSE, Strain/Sex: SKH/HRL/FEMALE, Target Tissue: Type of Lesion: SKIN: TUMOR, Dose [Carcinogen]: 0.3 KJ/SQM ON FIRST DAY, 0.6 KJ/SQM ON SECOND DAY AND ALL SUBSEQUENT DAYS 0.9 KJ/SQM ADMINISTERED 5 D/WK FOR 4 WK): 8/27 (30%), 4/27 (15%), 50%, not significant
